{"source": "patent US11787769B2", "about": "(priority 2019, dated 2023)", "key": {"PR8-NS1-Gluc virus": {"tested_on": "PR8-NS1-Gluc virus", "assay": "microbe, parasite or virus in culture", "assay_type": "cell-based, influenza A PR8"}, "[1]": {"assay": "Pharmacokinetic analysis of plasma and liver levels in BALB/c mice"}, "CYP3A4": {"biological_target": "CYP3A4 (Homo sapiens, UniProt P08684)", "sequence (P08684 whole entry)": "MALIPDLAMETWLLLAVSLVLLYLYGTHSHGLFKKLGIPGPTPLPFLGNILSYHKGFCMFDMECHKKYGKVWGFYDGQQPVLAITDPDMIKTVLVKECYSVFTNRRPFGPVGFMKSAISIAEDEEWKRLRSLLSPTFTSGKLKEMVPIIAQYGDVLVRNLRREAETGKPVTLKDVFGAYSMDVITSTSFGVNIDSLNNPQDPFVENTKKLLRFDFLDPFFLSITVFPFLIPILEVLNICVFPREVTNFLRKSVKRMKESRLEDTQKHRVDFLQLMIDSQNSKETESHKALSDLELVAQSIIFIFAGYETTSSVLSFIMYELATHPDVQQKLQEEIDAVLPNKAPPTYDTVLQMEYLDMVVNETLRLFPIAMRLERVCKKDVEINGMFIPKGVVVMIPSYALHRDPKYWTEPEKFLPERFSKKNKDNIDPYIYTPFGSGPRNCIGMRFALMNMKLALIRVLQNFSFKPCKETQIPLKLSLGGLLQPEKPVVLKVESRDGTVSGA", "assay": "biochemical"}, "[2]": {"assay": "Hepatic metabolic stability in human liver microsomes", "settings": "human LM, in the presence of NADPH"}, "[3]": {"tested_on": "influenza A virus (HA of H5N1, Goose/Qinghai/59/05)", "assay": "microbe, parasite or virus in culture", "assay_type": "cell-based", "settings": "Influenza A virus"}, "CYP2C9": {"biological_target": "CYP2C9 (Homo sapiens, UniProt P11712)", "sequence (P11712 whole entry)": "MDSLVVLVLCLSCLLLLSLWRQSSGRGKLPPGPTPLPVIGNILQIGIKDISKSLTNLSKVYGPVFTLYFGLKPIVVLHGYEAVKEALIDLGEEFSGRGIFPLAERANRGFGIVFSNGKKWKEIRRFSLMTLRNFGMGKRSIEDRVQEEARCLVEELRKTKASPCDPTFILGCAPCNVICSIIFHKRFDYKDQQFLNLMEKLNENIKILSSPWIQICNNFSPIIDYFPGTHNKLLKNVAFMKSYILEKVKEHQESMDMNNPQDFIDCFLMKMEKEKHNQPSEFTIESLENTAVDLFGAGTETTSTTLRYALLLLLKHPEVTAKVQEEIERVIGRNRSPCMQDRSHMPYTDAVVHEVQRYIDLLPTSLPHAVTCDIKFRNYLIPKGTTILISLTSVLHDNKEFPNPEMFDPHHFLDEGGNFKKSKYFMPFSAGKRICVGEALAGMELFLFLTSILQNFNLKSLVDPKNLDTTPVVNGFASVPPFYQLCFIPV", "assay": "biochemical"}, "[4]": {"tested_on": "PR8-PB2-Gluc, influenza A/Puerto Rico/8/1934 (PR8) H1N1 virus", "assay": "microbe, parasite or virus in culture", "assay_type": "cell-based", "settings": "Influenza A virus, MDCK, read-out: EC50 (nM), antiviral activity in the infectious IAV"}, "[5]": {"assay": "Hepatic metabolic stability in mouse liver microsomes", "settings": "mouse LM, in the presence of NADPH"}, "[6]": {"settings": "Influenza A virus, PR8, MDCK, 48 h"}}, "note": "Like-named read-outs stand apart in the source and are kept apart here.", "data": [{"compound": "CC(C)(C)N1CCC(NC(=O)c2ccc(C(F)(F)F)cc2Cl)CC1", "note": "[Compound 16, N-(1-(tert-Butyl)piperidin-4-yl)-2-chloro-4-(trifluoromethyl)benzamide]", "values": [{"measurement": "EC30", "setting": "PR8-NS1-Gluc virus", "result": 134, "unit": "nM"}, {"measurement": "EC40", "setting": "PR8-NS1-Gluc virus", "result": 160, "unit": "nM"}, {"measurement": "EC60", "setting": "PR8-NS1-Gluc virus", "result": 219, "unit": "nM"}, {"measurement": "EC70", "setting": "PR8-NS1-Gluc virus", "result": 260, "unit": "nM"}, {"measurement": "EC80", "setting": "PR8-NS1-Gluc virus", "result": 321, "unit": "nM"}, {"measurement": "EC50", "setting": "PR8-NS1-Gluc virus; [6]", "result": 187, "unit": "nM"}, {"measurement": "EC90", "setting": "PR8-NS1-Gluc virus; [6]", "result": 439, "unit": "nM"}, {"measurement": "Cmax", "setting": "[1]; 5x the dose p.o. (50 mg/kg), plasma", "result": 7641, "unit": "ng/mL"}, {"measurement": "Cmax p.o. relative to i.p. (fold higher)", "setting": "[1]; 5x the dose p.o. vs 10 mg/kg i.p., plasma", "result": 7, "unit": "×"}, {"measurement": "oral bioavailability", "setting": "[1]; BALB/c mice, p.o. vs i.p. Cmax", "result": "excellent oral bioavailability"}, {"measurement": "Tmax", "setting": "[1]; BALB/c, mouse, plasma, intraperitoneal, oral", "result": 30, "unit": "min"}, {"measurement": "AUC(0-8 h)", "setting": "[1]; i.p. (10 mg/kg), liver", "result": 66400, "unit": "ng·h/g"}, {"measurement": "T1/2", "setting": "[1]; i.p. (10 mg/kg), liver", "result": 148, "unit": "min"}, {"measurement": "Tmax", "setting": "[1]; i.p. (10 mg/kg), liver", "result": 15, "unit": "min"}, {"measurement": "AUC(0-8 h)", "setting": "[1]; i.p. (10 mg/kg), plasma", "result": 3282, "unit": "ng·h/g"}, {"measurement": "T1/2", "setting": "[1]; i.p. (10 mg/kg), plasma", "result": 91.8, "unit": "min"}, {"measurement": "Tmax", "setting": "[1]; i.p. (10 mg/kg), plasma", "result": 30, "unit": "min"}, {"measurement": "AUC(0-8 h)", "setting": "[1]; p.o. (50 mg/kg), liver", "result": 292000, "unit": "ng·h/g"}, {"measurement": "T1/2", "setting": "[1]; p.o. (50 mg/kg), liver", "result": 155, "unit": "min"}, {"measurement": "Tmax", "setting": "[1]; p.o. (50 mg/kg), liver", "result": 60, "unit": "min"}, {"measurement": "AUC(0-8 h)", "setting": "[1]; p.o. (50 mg/kg), plasma", "result": 23705, "unit": "ng·h/g"}, {"measurement": "T1/2", "setting": "[1]; p.o. (50 mg/kg), plasma", "result": 130, "unit": "min"}, {"measurement": "Tmax", "setting": "[1]; p.o. (50 mg/kg), plasma", "result": 30, "unit": "min"}, {"measurement": "Cmax", "setting": "[1]; read-out: Cmax level in the plasma, 10 mg/kg i.p.", "result": 3.12, "unit": "µM"}, {"measurement": "IC50", "setting": "CYP3A4", "result": "> 100000", "unit": "nM"}, {"measurement": "percentage of compound remaining after 60 minutes", "setting": "[2]", "result": 97, "unit": "%"}, {"measurement": "inhibition at 12.5 µM", "setting": "[3]; H5N1, A549, 12.5 μM, read-out: H5N1 pseudotype assay % inhibition at 12.5 μM", "result": 99, "unit": "%"}, {"measurement": "EC50", "setting": "[3]; H5N1, A549, read-out: H5N1 pseudotype assay EC50 (μM)", "result": "0.24 ± 0.09", "unit": "µM"}, {"measurement": "IC50", "setting": "CYP2C9", "result": "> 100000", "unit": "nM"}, {"measurement": "EC50", "setting": "[4]", "result": 72, "unit": "nM"}, {"measurement": "percentage of compound remaining after 60 minutes", "setting": "[5]", "result": 94, "unit": "%"}]}]}
